This note sets out measurements from PubChem BioAssay (NCI).

Some test systems named below: U251 CNS; RPMI-8226 leukemia; OVCAR-8 ovarian; SK-MEL-2 melanoma; HCT-15 colon; K-562 leukemia; RXF 393 renal; SF-295 CNS; OVCAR-3 ovarian.
Holding throughout (test): inhibition of tumour cell growth, NCI panel, 48 h

SMILES strings stand for the structures.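 Each compound was tested at five concentrations against cells in 96-well plates for 48 hours. GI50 marks 50% less growth. TGI marks complete inhibition of growth.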 Where only a bound is given, the exact number is not on record here.

Regarding `CC(=O)O[C@@H]1CC(C)C2CC2C2=C(C(O)OC2O)[C@@H]1C(C)CCC=C(C)C` (stereo partly drawn), the TGI is 41.1 µM in the test on U251 CNS; 59.1 µM in the test with RPMI-8226 leukemia; 73 µM in the test on OVCAR-8 ovarian; > 100 µM in the test with SK-MEL-2 melanoma; 49.5 µM with HCT-15 colon; 66.9 µM in the test on K-562 leukemia. In the test with RXF 393 renal, this compound had a TGI of 34.8 µM.
As for `COc1cc2c(cc1OC)[C@@H](C(O)c1ccccc1)NCC2` (stereo partly drawn), the TGI in the test on U251 CNS, in the test on OVCAR-8 ovarian, with SK-MEL-2 melanoma, in the test with HCT-15 colon, in the test with K-562 leukemia and in the test on SF-295 CNS was > 100 µM each time. Also, the TGI in the test on RXF 393 renal and in the test with OVCAR-3 ovarian was > 100 µM throughout.
On to `Cc1cccc(C)c1NC(=O)C(=O)CC(=O)CO`, for which the TGI in the test with U251 CNS, in the test on RPMI-8226 leukemia, in the test on OVCAR-8 ovarian, in the test on SK-MEL-2 melanoma, in the test with HCT-15 colon and in the test with K-562 leukemia was > 100 µM each time. Moreover, the TGI in the test with SF-295 CNS, with RXF 393 renal and in the test with OVCAR-3 ovarian was > 100 µM in each case.
With `CN(C)c1ccc(/C=C2\N=C(c3ccc(N)cc3)OC2=O)cc1`, the TGI with U251 CNS, in the test on RPMI-8226 leukemia, with OVCAR-8 ovarian, with SK-MEL-2 melanoma, with HCT-15 colon and in the test with K-562 leukemia was > 100 µM each time. Also, the TGI with SF-295 CNS and with OVCAR-3 ovarian was > 100 µM in each case.
With `N#CC1(c2nc3ccccc3o2)C(=O)C(=O)N(c2ccc(Cl)c(Cl)c2)C(=O)C1=O`, the TGI in the test on RPMI-8226 leukemia, in the test with OVCAR-8 ovarian, with SK-MEL-2 melanoma, in the test with HCT-15 colon, in the test on K-562 leukemia and in the test on SF-295 CNS was > 100 µM throughout. For the same compound, the TGI in the test with RXF 393 renal and with OVCAR-3 ovarian was > 100 µM each time.
Take `Cc1ccc(C2=Nc3ccccc3NC(=O)C2)cc1`: the TGI with U251 CNS, in the test on OVCAR-8 ovarian, with SK-MEL-2 melanoma, with HCT-15 colon, in the test with K-562 leukemia and in the test with SF-295 CNS was > 100 µM throughout. The TGI with RXF 393 renal and with OVCAR-3 ovarian was > 100 µM in each case.
Consider `CC(=S)NNC(=O)c1ccncc1`, for which the TGI in the test on U251 CNS, in the test on OVCAR-8 ovarian, in the test on SK-MEL-2 melanoma, in the test with HCT-15 colon, in the test with K-562 leukemia and in the test on SF-295 CNS was > 100 µM in each case. The TGI in the test with RXF 393 renal and in the test on OVCAR-3 ovarian was > 100 µM throughout.
For the compound `CC(C)(C)C(=O)C(c1ccc(-c2cscn2)cc1)c1ccc(-c2cscn2)cc1`, the TGI is > 60.8 µM in the test on U251 CNS; > 100 µM with RPMI-8226 leukemia; > 100 µM in the test with OVCAR-8 ovarian; 68.5 µM in the test with SK-MEL-2 melanoma; > 100 µM in the test with HCT-15 colon; > 100 µM with K-562 leukemia. Further, the TGI in the test on SF-295 CNS was 84.5 µM; with RXF 393 renal, 54.7 µM; in the test with OVCAR-3 ovarian, > 84.7 µM.
`COC1CC(OS(=O)(=O)c2ccc(C)cc2)C(OS(=O)(=O)c2ccc(C)cc2)C(COS(=O)(=O)c2ccc(C)cc2)O1` (stereo not drawn): the TGI is 11.6 µM in the test with U251 CNS; 86 µM in the test on RPMI-8226 leukemia; 6.06 µM with OVCAR-8 ovarian; 20.1 µM in the test with SK-MEL-2 melanoma; 19 µM with HCT-15 colon; > 100 µM in the test on K-562 leukemia. The TGI came to 4.38 µM with SF-295 CNS, 4.64 µM in the test with RXF 393 renal and 5.62 µM in the test with OVCAR-3 ovarian.
Turning to `O=Cc1[nH]c2ccccc2c1Br`, the TGI is 51.1 µM in the test on U251 CNS; 64.4 µM with OVCAR-8 ovarian; 31.2 µM in the test on SK-MEL-2 melanoma; 47.4 µM in the test on K-562 leukemia; > 100 µM in the test with SF-295 CNS; 67.8 µM in the test with RXF 393 renal. The compound also registered a TGI with OVCAR-3 ovarian of 56.5 µM.
With `Cc1cc2c(c(C#N)c1C)NC(=O)C(CC(=O)O)C2=O` (stereo not drawn), the TGI with U251 CNS, in the test on RPMI-8226 leukemia, in the test with OVCAR-8 ovarian, with SK-MEL-2 melanoma, in the test with HCT-15 colon and in the test with K-562 leukemia was > 100 µM in each case. Further, the TGI in the test on SF-295 CNS, in the test with RXF 393 renal and in the test on OVCAR-3 ovarian was > 100 µM throughout.
Turning to `O=C(Nc1nccs1)c1cc(C2=CC=CC([N+](=O)[O-])C=C2)nc(=S)[nH]1` (stereo not drawn), the TGI in the test on U251 CNS, with RPMI-8226 leukemia, in the test on OVCAR-8 ovarian, in the test on SK-MEL-2 melanoma, with HCT-15 colon and with K-562 leukemia was > 100 µM throughout. The TGI with SF-295 CNS, in the test on RXF 393 renal and in the test with OVCAR-3 ovarian was > 100 µM in each case.
With `CN(C)CCCn1c2c3ccccc3ccc2c2oc(=O)c3ccccc3c21`, the TGI was determined as 9.26 µM with U251 CNS; 14 µM with RPMI-8226 leukemia; 8.75 µM in the test with OVCAR-8 ovarian; 21.1 µM in the test with SK-MEL-2 melanoma; 4.34 µM in the test with HCT-15 colon; 7.17 µM in the test on SF-295 CNS. In addition, the TGI with RXF 393 renal worked out at 2.75 µM; in the test with OVCAR-3 ovarian, 9.22 µM.
In the case of `O=C(O)c1ccc([N+](=O)[O-])c2c(=O)c3ccccc3[nH]c12`, the TGI with U251 CNS, with RPMI-8226 leukemia, with OVCAR-8 ovarian, in the test with SK-MEL-2 melanoma, in the test on HCT-15 colon and in the test on K-562 leukemia was > 100 µM each time. Further, the TGI in the test with SF-295 CNS and in the test with RXF 393 renal was > 100 µM in each case.
Regarding `CCN(CC)C(=S)N/N=C(\C)c1ccccc1O`, the TGI with U251 CNS was 89 µM; with RPMI-8226 leukemia, > 100 µM; with OVCAR-8 ovarian, > 100 µM; in the test with SK-MEL-2 melanoma, 80.7 µM; in the test on HCT-15 colon it was > 100 µM; in the test on K-562 leukemia it was > 100 µM. The TGI in the test with SF-295 CNS, in the test on RXF 393 renal and in the test with OVCAR-3 ovarian was > 100 µM throughout.
For `CCCCC(=O)[O-].N.N.N.N.N.[Co+3].[O-][Cl+3]([O-])([O-])[O-]`, the GI50 in the test on U251 CNS, in the test on RPMI-8226 leukemia, in the test on OVCAR-8 ovarian, with SK-MEL-2 melanoma, in the test on HCT-15 colon and in the test with K-562 leukemia was > 100 µM throughout. Besides, the GI50 with SF-295 CNS and with OVCAR-3 ovarian was > 100 µM each time. The TGI in the test on U251 CNS, with RPMI-8226 leukemia, in the test with OVCAR-8 ovarian, in the test on SK-MEL-2 melanoma, in the test on HCT-15 colon and in the test with K-562 leukemia was > 100 µM throughout. Further, the TGI with SF-295 CNS and in the test on OVCAR-3 ovarian was > 100 µM throughout.
Turning to `O=C(c1ccc(NCN2C(=O)CCC2=O)cc1)c1ccc(NCN2C(=O)CCC2=O)cc1`, the TGI with U251 CNS was > 100 µM; in the test on RPMI-8226 leukemia it was 43.9 µM; in the test on OVCAR-8 ovarian it was > 100 µM; in the test on SK-MEL-2 melanoma, > 100 µM; in the test on HCT-15 colon, > 100 µM; in the test with K-562 leukemia, > 100 µM. In addition, the TGI in the test with SF-295 CNS, with RXF 393 renal and in the test on OVCAR-3 ovarian was > 100 µM each time.
In the case of `CNS(=O)(=O)NN(C)S(=O)(=O)c1ccc(Br)cc1`, the TGI in the test with U251 CNS, with RPMI-8226 leukemia, in the test on OVCAR-8 ovarian, with SK-MEL-2 melanoma, with HCT-15 colon and in the test on K-562 leukemia was > 100 µM in each case. The TGI in the test on SF-295 CNS, in the test with RXF 393 renal and with OVCAR-3 ovarian was > 100 µM each time.
In the case of `O=C(N/N=C/c1cc(Br)cc(Br)c1[O-])c1ccccc1O.O=C(N/N=C/c1cc(Br)cc(Br)c1[O-])c1ccccc1O.[Mn+2]`, the TGI in the test with U251 CNS came out at 14.8 µM; in the test with RPMI-8226 leukemia it was 14.8 µM; in the test with OVCAR-8 ovarian, 14.3 µM; in the test with SK-MEL-2 melanoma, 22.3 µM; with HCT-15 colon, 19.9 µM; in the test on K-562 leukemia it was 12.1 µM. Moreover, the results for the TGI in the test with SF-295 CNS, in the test on RXF 393 renal and in the test with OVCAR-3 ovarian were 13.7 µM, 28.4 µM and 1.66 µM, respectively. Also, the GI50 with RPMI-8226 leukemia was 1.03 µM; with K-562 leukemia it was 1.66 µM.
For `O[C@]12CCCC[C@H]1CCC2`, the TGI with U251 CNS, in the test on RPMI-8226 leukemia, in the test on OVCAR-8 ovarian, with SK-MEL-2 melanoma, in the test with HCT-15 colon and with K-562 leukemia was > 100 µM throughout. The TGI with SF-295 CNS, in the test on RXF 393 renal and in the test on OVCAR-3 ovarian was > 100 µM each time.
On to `C=CCN=C1N=C(CC(=O)OCC)CS1`, for which the TGI in the test on U251 CNS, in the test on OVCAR-8 ovarian, in the test with SK-MEL-2 melanoma, with HCT-15 colon, in the test with K-562 leukemia and with SF-295 CNS was > 100 µM each time. Also, the TGI in the test on RXF 393 renal and with OVCAR-3 ovarian was > 100 µM each time.
For the compound `CCOC(=O)NC(=O)c1cn(CCCOC(=O)CCCCCCCCC(=O)OCCCn2cc(C(=O)NC(=O)OCC)c(=O)[nH]c2=O)c(=O)[nH]c1=O`, the TGI in the test with U251 CNS is 41.4 µM; in the test on RPMI-8226 leukemia, 38.3 µM; in the test on OVCAR-8 ovarian, > 100 µM; in the test on HCT-15 colon it was 68.8 µM; with K-562 leukemia, 49.8 µM; in the test on SF-295 CNS, 50.2 µM. For the same compound, in the test on OVCAR-3 ovarian, the TGI came to 34.8 µM.
